Measurements as given in ChEMBL document CHEMBL3991601, “The target landscape of clinical kinase drugs” (Science, 2017).
Calls of active or inactive are those of the source.

What was measured:
[1] = biological target: DnaJ homolog subfamily A member 1 (Homo sapiens, UniProt P31689)
[2] = biological target: T1, Serine/threonine-protein kinase Nek1 (Homo sapiens, UniProt Q96PY6)
T1 sequence (Q96PY6 whole entry): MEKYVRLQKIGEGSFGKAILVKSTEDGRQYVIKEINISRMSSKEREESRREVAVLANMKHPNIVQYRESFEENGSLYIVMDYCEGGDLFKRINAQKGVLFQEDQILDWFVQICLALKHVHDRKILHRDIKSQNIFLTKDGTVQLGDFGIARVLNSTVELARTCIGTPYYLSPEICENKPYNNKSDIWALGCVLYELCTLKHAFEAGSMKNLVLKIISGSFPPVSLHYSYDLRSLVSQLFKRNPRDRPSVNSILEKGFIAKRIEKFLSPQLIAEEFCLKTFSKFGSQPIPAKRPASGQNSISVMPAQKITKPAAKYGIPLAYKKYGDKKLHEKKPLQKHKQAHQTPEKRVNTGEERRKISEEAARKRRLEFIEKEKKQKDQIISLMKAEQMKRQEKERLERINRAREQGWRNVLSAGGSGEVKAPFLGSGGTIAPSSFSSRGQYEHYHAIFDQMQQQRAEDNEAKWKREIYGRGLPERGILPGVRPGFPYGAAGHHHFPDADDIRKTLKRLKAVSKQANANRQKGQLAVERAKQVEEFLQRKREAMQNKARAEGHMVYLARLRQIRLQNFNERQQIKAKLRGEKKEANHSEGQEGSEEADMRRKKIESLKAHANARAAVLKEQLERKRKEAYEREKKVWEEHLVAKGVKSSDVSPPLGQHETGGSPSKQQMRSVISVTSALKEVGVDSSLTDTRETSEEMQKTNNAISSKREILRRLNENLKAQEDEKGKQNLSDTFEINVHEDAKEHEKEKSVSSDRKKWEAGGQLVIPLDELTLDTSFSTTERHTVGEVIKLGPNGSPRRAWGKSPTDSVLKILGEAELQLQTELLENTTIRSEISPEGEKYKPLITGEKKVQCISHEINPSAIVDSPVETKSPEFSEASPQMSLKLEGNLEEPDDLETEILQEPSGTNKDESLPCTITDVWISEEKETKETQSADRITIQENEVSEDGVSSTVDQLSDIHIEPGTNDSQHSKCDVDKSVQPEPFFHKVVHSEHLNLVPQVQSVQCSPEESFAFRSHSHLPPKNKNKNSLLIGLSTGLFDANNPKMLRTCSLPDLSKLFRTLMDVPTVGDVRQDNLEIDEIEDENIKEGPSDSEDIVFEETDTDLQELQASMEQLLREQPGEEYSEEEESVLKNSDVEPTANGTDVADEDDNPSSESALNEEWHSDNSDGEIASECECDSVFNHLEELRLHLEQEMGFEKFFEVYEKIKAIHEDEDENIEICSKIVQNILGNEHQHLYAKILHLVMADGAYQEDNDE

[3] = biological target: Serine/threonine-protein kinase SIK3 (Homo sapiens, UniProt Q9Y2K2)
Serine/threonine-protein kinase SIK3, sequence (Q9Y2K2 whole entry): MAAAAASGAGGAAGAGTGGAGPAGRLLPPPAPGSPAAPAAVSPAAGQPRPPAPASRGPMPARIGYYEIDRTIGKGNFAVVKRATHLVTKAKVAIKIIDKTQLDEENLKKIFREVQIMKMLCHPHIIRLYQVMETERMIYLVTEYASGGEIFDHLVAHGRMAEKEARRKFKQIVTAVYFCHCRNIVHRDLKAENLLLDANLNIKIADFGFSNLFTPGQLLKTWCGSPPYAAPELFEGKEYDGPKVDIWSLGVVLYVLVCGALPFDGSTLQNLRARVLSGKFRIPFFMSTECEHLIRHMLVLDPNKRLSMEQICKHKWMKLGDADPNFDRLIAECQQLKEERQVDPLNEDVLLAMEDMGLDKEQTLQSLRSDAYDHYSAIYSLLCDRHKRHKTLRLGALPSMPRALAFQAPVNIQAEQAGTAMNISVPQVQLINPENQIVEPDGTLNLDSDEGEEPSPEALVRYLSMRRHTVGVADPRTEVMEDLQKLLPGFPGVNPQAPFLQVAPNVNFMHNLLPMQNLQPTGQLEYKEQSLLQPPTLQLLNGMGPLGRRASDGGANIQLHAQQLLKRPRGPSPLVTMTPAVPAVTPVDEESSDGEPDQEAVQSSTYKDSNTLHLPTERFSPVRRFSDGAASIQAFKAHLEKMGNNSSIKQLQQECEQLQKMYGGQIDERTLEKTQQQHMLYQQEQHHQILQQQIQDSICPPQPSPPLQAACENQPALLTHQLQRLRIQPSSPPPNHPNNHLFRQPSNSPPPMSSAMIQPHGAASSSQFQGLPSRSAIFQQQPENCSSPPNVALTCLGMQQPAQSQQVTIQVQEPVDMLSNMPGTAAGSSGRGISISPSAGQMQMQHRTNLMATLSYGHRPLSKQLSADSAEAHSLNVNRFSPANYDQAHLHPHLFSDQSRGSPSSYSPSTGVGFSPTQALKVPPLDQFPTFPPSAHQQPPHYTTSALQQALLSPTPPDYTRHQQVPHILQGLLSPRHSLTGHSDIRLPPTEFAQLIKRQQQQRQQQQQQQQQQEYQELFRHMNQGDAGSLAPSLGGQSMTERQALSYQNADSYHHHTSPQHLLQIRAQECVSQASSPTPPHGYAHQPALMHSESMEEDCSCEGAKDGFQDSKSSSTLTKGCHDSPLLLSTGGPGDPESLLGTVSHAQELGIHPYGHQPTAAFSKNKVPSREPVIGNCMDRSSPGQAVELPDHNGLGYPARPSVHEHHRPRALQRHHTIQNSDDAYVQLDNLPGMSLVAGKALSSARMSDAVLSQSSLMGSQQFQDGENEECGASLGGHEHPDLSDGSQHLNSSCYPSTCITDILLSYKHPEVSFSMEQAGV

[4] = biological target: T2, Cytochrome c1, heme protein, mitochondrial (Homo sapiens, UniProt P08574)
T2 sequence (P08574 whole entry): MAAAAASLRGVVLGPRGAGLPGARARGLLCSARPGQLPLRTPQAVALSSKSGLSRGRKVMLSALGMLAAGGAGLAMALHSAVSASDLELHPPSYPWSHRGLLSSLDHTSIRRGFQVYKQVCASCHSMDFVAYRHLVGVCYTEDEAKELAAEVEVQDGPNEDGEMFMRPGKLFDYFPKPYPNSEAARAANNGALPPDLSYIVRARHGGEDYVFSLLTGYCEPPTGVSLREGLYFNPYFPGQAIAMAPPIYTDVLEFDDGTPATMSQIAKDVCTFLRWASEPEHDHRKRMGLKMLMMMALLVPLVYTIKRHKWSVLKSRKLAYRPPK

[5] = biological target: NADH dehydrogenase [ubiquinone] 1 alpha subcomplex subunit 13 (Homo sapiens, UniProt Q9P0J0)
NADH dehydrogenase [ubiquinone] 1 alpha subcomplex subunit 13, sequence (Q9P0J0 whole entry, one chain of several): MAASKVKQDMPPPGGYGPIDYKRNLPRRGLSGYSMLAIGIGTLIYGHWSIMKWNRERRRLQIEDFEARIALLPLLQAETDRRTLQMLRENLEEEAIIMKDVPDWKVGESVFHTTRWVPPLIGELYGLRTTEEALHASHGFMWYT

[6] = biological target: T3, Glycogen phosphorylase, brain form (Homo sapiens, UniProt P11216)
T3 sequence (P11216 whole entry): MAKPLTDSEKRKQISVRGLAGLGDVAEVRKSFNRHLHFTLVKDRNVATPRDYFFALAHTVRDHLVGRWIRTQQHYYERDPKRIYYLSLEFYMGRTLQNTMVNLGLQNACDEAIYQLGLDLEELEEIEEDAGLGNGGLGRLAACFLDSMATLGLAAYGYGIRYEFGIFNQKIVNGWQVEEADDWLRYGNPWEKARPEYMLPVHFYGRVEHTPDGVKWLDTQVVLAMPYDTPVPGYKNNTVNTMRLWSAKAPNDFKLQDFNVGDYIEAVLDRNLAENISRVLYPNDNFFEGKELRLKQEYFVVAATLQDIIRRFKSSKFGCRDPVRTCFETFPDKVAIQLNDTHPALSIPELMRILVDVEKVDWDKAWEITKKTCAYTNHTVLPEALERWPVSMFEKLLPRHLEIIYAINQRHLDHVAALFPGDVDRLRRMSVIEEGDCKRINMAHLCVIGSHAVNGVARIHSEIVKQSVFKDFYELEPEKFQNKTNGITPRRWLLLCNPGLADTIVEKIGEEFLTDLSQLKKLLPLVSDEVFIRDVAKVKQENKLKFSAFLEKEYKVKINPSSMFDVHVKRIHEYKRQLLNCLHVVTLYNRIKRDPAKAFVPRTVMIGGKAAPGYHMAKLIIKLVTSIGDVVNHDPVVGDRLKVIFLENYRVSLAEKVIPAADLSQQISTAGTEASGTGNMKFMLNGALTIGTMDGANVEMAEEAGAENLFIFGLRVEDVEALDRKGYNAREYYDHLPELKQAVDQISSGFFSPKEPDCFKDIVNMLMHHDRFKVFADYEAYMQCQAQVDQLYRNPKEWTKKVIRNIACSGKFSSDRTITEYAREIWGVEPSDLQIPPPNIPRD
Further: in the data inactive means no Kd found up to 30 µM.

DnaJ homolog subfamily A member 1, sequence (P31689 whole entry): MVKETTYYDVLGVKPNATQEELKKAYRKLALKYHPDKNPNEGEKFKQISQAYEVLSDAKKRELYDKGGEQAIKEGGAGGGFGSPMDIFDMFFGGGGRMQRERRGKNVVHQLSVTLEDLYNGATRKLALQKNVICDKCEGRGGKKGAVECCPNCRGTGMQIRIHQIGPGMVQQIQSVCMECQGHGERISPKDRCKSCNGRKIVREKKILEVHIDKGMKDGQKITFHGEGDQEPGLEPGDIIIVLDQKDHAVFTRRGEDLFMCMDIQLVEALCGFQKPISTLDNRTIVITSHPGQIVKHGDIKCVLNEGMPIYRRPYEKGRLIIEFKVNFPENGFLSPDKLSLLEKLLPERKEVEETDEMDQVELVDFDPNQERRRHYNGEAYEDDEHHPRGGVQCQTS

Row | Kd [1] | Kd [2] | Kd [3] | Kd [4] | Kd [5] | Kd [6] | SMILES
1 | > 30 µM (inactive) | > 30 µM (inactive) | > 30 µM (inactive) | > 30 µM (inactive) | > 30 µM (inactive) | > 30 µM (inactive) | N[C@@H]1CCCN(c2c(/C=C3\SC(=O)NC3=O)cccc2-c2ccccc2)C1
2 | > 30 µM (inactive) | > 30 µM (inactive) | > 30 µM (inactive) | > 30 µM (inactive) | > 30 µM (inactive) | > 30 µM (inactive) | Cc1ccc(S(=O)(=O)Nc2nc3ccccc3nc2Nc2ccc3nsnc3c2)cc1
3 | > 30 µM (inactive) | > 30 µM (inactive) | > 30 µM (inactive) | > 30 µM (inactive) | > 30 µM (inactive) | > 30 µM (inactive) | CCN1CCN(Cc2ccc(-c3cc4c(N[C@H](C)c5ccccc5)ncnc4[nH]3)cc2)CC1 [AEE-788]
4 | > 30 µM (inactive) | > 30 µM (inactive) | > 30 µM (inactive) | > 30 µM (inactive) | > 30 µM (inactive) | > 30 µM (inactive) | Cn1ncc(Cl)c1-c1cc(C(=O)N[C@H](CN)Cc2cccc(F)c2)sc1Cl [AFURESERTIB]
5 | > 30 µM (inactive) | > 30 µM (inactive) | > 30 µM (inactive) | > 30 µM (inactive) | > 30 µM (inactive) | > 30 µM (inactive) | COc1cc(N2CCC(N3CCN(C)CC3)CC2)ccc1Nc1ncnc(Nc2ccccc2S(=O)(=O)C(C)C)n1 [ASP-3026]
6 | > 30 µM (inactive) | > 30 µM (inactive) | > 30 µM (inactive) | > 30 µM (inactive) | – | > 30 µM (inactive) | CNS(=O)(=O)Nc1nccc(Cc2c(C)c3ccc(Oc4ncccn4)cc3oc2=O)c1F [AVUTOMETINIB]
7 | > 30 µM (inactive) | > 30 µM (inactive) | > 30 µM (inactive) | > 30 µM (inactive) | > 30 µM (inactive) | > 30 µM (inactive) | COc1cc(CCc2cc(NC(=O)c3ccc(N4C[C@@H](C)N[C@@H](C)C4)cc3)n[nH]2)cc(OC)c1 [AZD-4547]
8 | > 30 µM (inactive) | > 30 µM (inactive) | > 30 µM (inactive) | > 30 µM (inactive) | > 30 µM (inactive) | > 30 µM (inactive) | Cc1cc([C@@H](C)Nc2ccccc2C(=O)O)c2nc(N3CCOCC3)cc(=O)n2c1 [AZD-6482]
9 | > 30 µM (inactive) | > 30 µM (inactive) | > 30 µM (inactive) | > 30 µM (inactive) | > 30 µM (inactive) | > 30 µM (inactive) | COc1ccc(-c2ccc3c(N4CCOC[C@@H]4C)nc(N4CCOC[C@@H]4C)nc3n2)cc1CO [AZD-8055]
10 | > 30 µM (inactive) | > 30 µM (inactive) | > 30 µM (inactive) | > 30 µM (inactive) | > 30 µM (inactive) | > 30 µM (inactive) | C[C@@H](Nc1cc(F)cc(F)c1)c1cc(C(=O)N(C)C)cc2c(=O)cc(N3CCOCC3)oc12 [AZD-8186]
11 | > 30 µM (inactive) | > 30 µM (inactive) | > 30 µM (inactive) | > 30 µM (inactive) | > 30 µM (inactive) | > 30 µM (inactive) | Cc1ccc(NC(=O)c2ccc(CN3CC[C@H](N(C)C)C3)c(C(F)(F)F)c2)cc1Nc1nccc(-c2cncnc2)n1 [BAFETINIB]
12 | > 30 µM (inactive) | > 30 µM (inactive) | > 30 µM (inactive) | > 30 µM (inactive) | > 30 µM (inactive) | > 30 µM (inactive) | CCS(=O)(=O)N1CC(CC#N)(n2cc(-c3ncnc4[nH]ccc34)cn2)C1 [BARICITINIB]
13 | > 30 µM (inactive) | > 30 µM (inactive) | > 30 µM (inactive) | > 30 µM (inactive) | > 30 µM (inactive) | > 30 µM (inactive) | Cc1cc2c(F)c(Oc3ncnn4cc(OC[C@@H](C)OC(=O)[C@H](C)N)c(C)c34)ccc2[nH]1 [BRIVANIB ALANINATE]
14 | > 30 µM (inactive) | > 30 µM (inactive) | > 30 µM (inactive) | > 30 µM (inactive) | – | > 30 µM (inactive) | CNC(=O)c1ccc(-c2cnc3ncc(Cc4ccc5ncccc5c4)n3n2)cc1F [CAPMATINIB]
15 | > 30 µM (inactive) | 1.1 µM (active) | – | > 30 µM (inactive) | > 30 µM (inactive) | > 30 µM (inactive) | Cc1nc(N)sc1-c1ccnc(Nc2ccc(N3CCOCC3)cc2)n1 [CYC-116]
16 | > 30 µM (inactive) | – | – | > 30 µM (inactive) | > 30 µM (inactive) | > 30 µM (inactive) | CN1CCN(c2ccc3nc(-c4c(N)c5c(F)cccc5[nH]c4=O)[nH]c3c2)CC1 [DOVITINIB]
17 | > 30 µM (inactive) | – | – | > 30 µM (inactive) | > 30 µM (inactive) | > 30 µM (inactive) | CCn1c(-c2nonc2N)nc2c(C#CC(C)(C)O)ncc(OC[C@H]3CCCNC3)c21 [GSK-690693]
18 | > 30 µM (inactive) | > 30 µM (inactive) | > 30 µM (inactive) | > 30 µM (inactive) | – | > 30 µM (inactive) | C[C@@H](c1ccc2nccn2c1)n1nnc2ncc(-c3cnn(C)c3)nc21 [SAVOLITINIB]
19 | > 30 µM (inactive) | – | – | – | > 30 µM (inactive) | > 30 µM (inactive) | Nc1nc(N)c2nc(-c3cccc(O)c3)c(-c3cccc(O)c3)nc2n1 [TG100-115]

Row | SMILES | Kd [1] | Kd [2] | Kd [3] | Kd [4] | Kd [5] | Kd [6]
20 | CN1CC[C@@H](c2c(O)cc(O)c3c(=O)cc(-c4ccccc4Cl)oc23)[C@@H]1CO | > 30 µM (inactive) | > 30 µM (inactive) | > 30 µM (inactive) | > 30 µM (inactive) | > 30 µM (inactive) | > 30 µM (inactive)
21 | Cc1cc(-c2cc(O)ccc2Cl)cc2nnc(Nc3ccc(OCCN4CCCC4)cc3)nc12 | > 30 µM (inactive) | > 30 µM (inactive) | 0.003 µM (active) | > 30 µM (inactive) | > 30 µM (inactive) | > 30 µM (inactive)
22 | Cc1cn(-c2cc(NC(=O)c3ccc(C)c(Nc4nccc(-c5cccnc5)n4)c3)cc(C(F)(F)F)c2)cn1 [NILOTINIB] | > 30 µM (inactive) | – | – | > 30 µM (inactive) | > 30 µM (inactive) | –
23 | C=CC(=O)N1CCC(Oc2cc3c(Nc4ccc(Cl)c(Cl)c4F)ncnc3cc2OC)CC1 [POZIOTINIB] | > 30 µM (inactive) | > 30 µM (inactive) | > 30 µM (inactive) | > 30 µM (inactive) | – | > 30 µM (inactive)
